Data from patent US20100292288A1, “CRYSTALLINE FORMS OF (R)-1-{2-[4`- (3-METHOXY-PROPANE-1- SULFONYL)-BIPHENYL-4-YL]-ETHYL}-2-METHYL-PYRROLIDINE, AND COMPOSITIONS, AND METHODS RELATED THERETO” (ARENA PHARMACEUTICALS, INC., priority 2007, published 2010).

Key:
[1] = Dynamic vapor sorption (DVS) analysis, hygroscopicity; assay type: physicochemical; conditions: crystalline form; VTI-SGA100
Experimental: Dynamic vapor sorption analysis was conducted using a VTI-SGA100. Samples were placed in an open pan inside the instrument and allowed to dry at a relative humidity (RH) of 0%. The sample was considered sufficiently dry when a change in mass over time (dm/dt) was less than 0.04%. The subsequent experiment which, started immediately after drying, was as follows: RH increased in 5% RH steps from 0-95% followed by decreasing RH steps from 95-5%. A change in dm/dt of 0.002% was used to determine when equilibration at any given step was achieved prior to the instrument moving to the next relative humidity step.
Hygroscopicity was measured using a dynamic moisture-sorption analyzer, VTI Corporation, SGA-100. The sample was placed as-is in a tared sample holder on the VTI balance. A drying step was run at 40° C. and 1% RH for 20 minutes. The isotherm conditions are 25° C. with steps of 20% RH from 10% RH up to 90% RH and back to 10% RH. Weight is checked every 5 minutes. Consecutive % weight change of <0.01% or 2 hours, whichever occurs first, is required before continuing to the next step.

[2] = tested on: RAMH-induced drinking; test: Blockade of RAMH-induced drinking assay; assay type: in vivo, rat; conditions: male Sprague Dawley rats; 0.3 mg/kg PO; RAMH 3 mg/kg SC 30 min later; water intake over 20 min
Experimental: When administered to rodents, H3 agonists such as R-α-methyl-histamine (RAMH) induce a drinking response which is sensitive to reversal with an H3 antagonist. Blockade of RAMH-induced drinking can therefore be utilised as an in vivo assay for functional H3 antagonist activity. In this assay, male Sprague Dawley rats (250-350 g) were housed three per cage and maintained under a reverse 12 h light cycle (lights off at 1130 h). At 1030 h on the day of test, rats were individually housed in new cages and food was removed. 120 min later, rats were administered test article (vehicle or H3 antagonist, 0.3 mg/kg PO). 30 min later, water was removed, and RAMH (vehicle or RAMH 3 mg/kg salt SC) was administered. 10 min after administration of RAMH, weighed water bottles were placed in the cages, and drinking was allowed for 20 min. Water consumption was determined for each animal by weighing each bottle to the nearest 0.1 g. Data is expressed as percentage reduction in water intake according to the following formula: [1−[(ANTAGONIST/RAMH)−(VEHICLE/RAMH)/(VEHICLE/RAMH)−(VEHICLE/VEHICLE)]]*100

[3] = molecular target: histamine H3-receptor (Rattus norvegicus, UniProt Q9QYN8); test: [3H] N-alpha-methyl-histamine competitive histamine H3-receptor binding assay; conditions: membranes from whole rat brain cortex; [3H]-N-α-methyl-histamine 1 nM; 30 min at room temperature
Sequence of histamine H3-receptor (Q9QYN8 1-397 isoform Q9QYN8-3): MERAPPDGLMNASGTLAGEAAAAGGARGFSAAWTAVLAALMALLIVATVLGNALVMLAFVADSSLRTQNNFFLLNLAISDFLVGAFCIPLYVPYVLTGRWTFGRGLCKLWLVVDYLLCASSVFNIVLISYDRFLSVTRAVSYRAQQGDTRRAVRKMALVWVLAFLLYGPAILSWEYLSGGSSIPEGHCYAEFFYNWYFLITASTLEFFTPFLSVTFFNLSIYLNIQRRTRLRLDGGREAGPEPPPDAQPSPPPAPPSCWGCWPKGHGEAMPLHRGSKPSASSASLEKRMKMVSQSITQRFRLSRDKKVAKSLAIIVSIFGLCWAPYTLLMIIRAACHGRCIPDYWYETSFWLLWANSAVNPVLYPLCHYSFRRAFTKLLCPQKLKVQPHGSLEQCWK
Experimental: The histamine receptor binding assay was conducted using standard laboratory procedures as described below. A crude membrane fraction was prepared from whole rat brain cortex using a polytron to homogenize the tissue followed by differential centrifugation in a HEPES-based buffer containing protease inhibitors. Membranes where frozen at −80° C. until needed. Frozen membranes were thawed and resuspended in ice-cold assay buffer consisting of 50 mM TRIS containing 5 mM EDTA (pH=7.4). 50 micrograms (μg) of membrane protein was added to each well of a 96-well assay plate along with test compound and [^3H]-N-α-methyl-histamine (1 nanomolar (nM) final assay concentration). Imetit was used as an assay positive control at varying concentrations. The plate was incubated for 30 min at room temperature. The assay was terminated by rapid filtration through a 96-well glass fiber filtration plate (GF/C) using a cell harvester (Perkin-Elmer). Captured membranes were washed three times with cold assay buffer and plates were dried at 50° C. 35 microliters (μL) of scintillation cocktail was added to each well and membrane-bound radioactivity was recorded using a TopCount 96-well plate scintillation counter (Perkin-Elmer).

[4] = molecular target: T1, human histamine H3-receptor (Homo sapiens, UniProt Q9Y5N1); test: Human histamine H3-receptor binding assay, MDS Pharma Services (Taiwan); conditions: Catalogue No. 239810
T1 construct: purchased MDS Pharma Services (Taiwan) 239810
T1 sequence (Q9Y5N1 whole entry): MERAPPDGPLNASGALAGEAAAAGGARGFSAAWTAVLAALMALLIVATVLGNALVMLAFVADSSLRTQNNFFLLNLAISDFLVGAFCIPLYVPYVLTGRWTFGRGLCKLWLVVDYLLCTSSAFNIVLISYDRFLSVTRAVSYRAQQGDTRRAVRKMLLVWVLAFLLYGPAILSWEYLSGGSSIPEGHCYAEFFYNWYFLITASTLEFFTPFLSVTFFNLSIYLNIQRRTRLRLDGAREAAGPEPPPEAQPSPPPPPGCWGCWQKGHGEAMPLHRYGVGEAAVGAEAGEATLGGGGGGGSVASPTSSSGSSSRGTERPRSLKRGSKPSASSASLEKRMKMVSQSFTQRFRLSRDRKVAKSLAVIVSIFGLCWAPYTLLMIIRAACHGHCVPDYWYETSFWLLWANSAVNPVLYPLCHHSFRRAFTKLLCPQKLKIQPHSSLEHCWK
Experimental: Compounds were tested for their ability to bind to the human histamine H3-receptor using the MDS Pharma Services (Taiwan) assay, Catalogue No. 239810.

Row | SMILES | hygroscopicity from DVS data [1] | % inhibition of RAMH-induced drinking [2] [%] | Ki [3] [nM] | Ki [4] [nM]
1 | COCCCS(=O)(=O)c1ccc(-c2ccc(CCN3CCC[C@H]3C)cc2)cc1.O=C(O)/C=C\C(=O)O [(R)-1-{2-[4′-(3-methoxy-propane-1-sulfonyl)-biphenyl-4-yl]-ethyl}-2-methyl-pyrrolidine maleate] | non-hygroscopic |  |  | 
2 | COCCCS(=O)(=O)c1ccc(-c2ccc(CCN3CCC[C@H]3C)cc2)cc1.O=C(O)CC(O)(CC(=O)O)C(=O)O.O=C(O)CC(O)(CC(=O)O)C(=O)O [Cmpd (I) di-citrate, (R)-1-{2-[4′-(3-methoxy-propane-1-sulfonyl)-biphenyl-4-yl]-ethyl}-2-methyl-pyrrolidine di-citrate] | non-hygroscopic | 104 ± 14 | 0.75 | 
3 | COCCCS(=O)(=O)c1ccc(-c2ccc(CCN3CCC[C@H]3C)cc2)cc1 [Cmpd (I), (R)-1-{2-[4′-(3-methoxy-propane-1-sulfonyl)-biphenyl-4-yl]-ethyl}-2-methyl-pyrrolidine] |  |  |  | 5.37
